The experiment has as its system Phakopsora pachyrhizi. Description: Phakopsora pachyrhizi test in soybean, preventive spray. It is filed as in vivo. The conditions noted are these: preventive spray on soybean plants, inoculated one day after treatment, greenhouse 25° C., 90% relative humidity, read-out: control (efficacy, disease severity rating) compared to the untreated check. On the procedure: Example 8: Phakopsora pachyrhizi Test in Soybean
Compounds were dissolved in 2% DMSO/Acetone & then mixed with water to the calibrated spray volume of 50 mL and poured into the spray bottles for further applications.
To test the preventive activity of compounds, healthy young soybean plants raised in the greenhouse were sprayed with active compound preparation at the stated application rates inside the spray cabinets using hallowcone nozzles. One day after treatment, the plants were inoculated with spore suspension containing 2.1×10^6 Phakopsora pachyrhizi inoculum. The inoculated plants were then kept in greenhouse chamber at 25° C. temperature & 90% relative humidity for disease expression.
A visual assessment of compound's performance was carried out by rating the disease severity (0-100% scale) on treated plants on 3, 7, 10 & 15 days after application. Efficacy (% control) of the compounds was calculated by comparing the disease rating in the treatment with the one of the untreated control. The sprayed plants were also assessed for compound's plant compatibility by recording symptoms like necrosis, chlorosis & stunting.
Take `CS(=O)(=NC(=O)c1ccc(-c2noc(C(F)(F)F)n2)cc1)c1ccc(Cl)cc1` (stereo not drawn) [Compound 1, N-((4-chlorophenyl)(methyl)(oxo)-λ^6-sulfanylidene)-4-(5-(trifluoromethyl)-1,2,4-oxadiazol-3-yl)benzamide]: the pest or weed control at 500 ppm was greater than 90%.
For `CS(=O)(=NC(=O)c1ccc(-c2noc(C(F)(F)F)n2)cc1)c1ccccn1` (stereo not drawn) [Compound 2, N-(methyl(oxo)(pyridin-2-yl)-λ^6-sulfanylidene)-4-(5-(trifluoromethyl)-1,2,4-oxadiazol-3-yl)benzamide] the value was greater than 90%; for `CS(=O)(=NC(=O)c1ccc(-c2noc(C(F)(F)F)n2)cc1)c1ccncc1` (stereo not drawn) [Compound 4, N-(methyl(oxo)(pyridin-4-yl)-λ^6-sulfanylidene)-4-(5-(trifluoromethyl)-1,2,4-oxadiazol-3-yl)benzamide], greater than 90%.
The figure for `CS(=O)(=NC(=O)c1ccc(-c2noc(C(F)(F)F)n2)cc1)c1cccc(F)c1` (stereo not drawn) [Compound 5, N-((3-fluorophenyl)(methyl)(oxo)-λ^6-sulfanylidene)-4-(5-(trifluoromethyl)-1,2,4-oxadiazol-3-yl)benzamide] is greater than 90%.
As to `CS(=O)(=NC(=O)c1ccc(-c2noc(C(F)(F)F)n2)cc1)c1ccc(F)cc1` (stereo not drawn) [Compound 6, N-((4-fluorophenyl)(methyl)(oxo)-λ^6-sulfanylidene)-4-(5-(trifluoromethyl)-1,2,4-oxadiazol-3-yl)benzamide], the pest or weed control at 500 ppm is greater than 90%.
Take `CS(=O)(=NC(=O)c1ccc(-c2noc(C(F)(F)F)n2)cc1)c1ccc(C(F)(F)F)cc1` (stereo not drawn) [Compound 7, N-(methyl(oxo)(4-(trifluoromethyl)phenyl)-λ^6-sulfanylidene)-4-(5-(trifluoromethyl)-1,2,4-oxadiazol-3-yl)benzamide]: the pest or weed control at 500 ppm was greater than 90%.
For `CS(=O)(=NC(=O)c1ccc(-c2noc(C(F)(F)F)n2)cc1)c1ccccc1` (stereo not drawn) [Compound 9, N-(methyl(oxo)(phenyl)-λ^6-sulfanylidene)-4-(5-(trifluoromethyl)-1,2,4-oxadiazol-3-yl)benzamide] the value was greater than 90%; for `COc1ccc(S(C)(=O)=NC(=O)c2ccc(-c3noc(C(F)(F)F)n3)cc2)cc1` (stereo not drawn) [Compound 10, N-((4-methoxyphenyl)(methyl)(oxo)-λ^6-sulfanylidene)-4-(5-(trifluoromethyl)-1,2,4-oxadiazol-3-yl)benzamide], greater than 90%.
For `CS(=O)(=Nc1ccc(-c2noc(C(F)(F)F)n2)cc1)c1ccccc1F` (stereo not drawn) [Compound 12, (2-fluorophenyl)(methyl)((4-(5-(trifluoromethyl)-1,2,4-oxadiazol-3-yl)phenyl)imino)-λ^6-sulfanone] the value was greater than 90%; for `CS(=O)(=Nc1ccc(-c2noc(C(F)(F)F)n2)cc1)c1ccc(OC(F)(F)F)cc1` (stereo not drawn) [Compound 21, methyl(4-(trifluoromethoxy)phenyl)((4-(5-(trifluoromethyl)-1,2,4-oxadiazol-3-yl)phenyl)imino)-λ^6-sulfanone], greater than 90%; for `CS(=O)(=NCc1ccc(-c2noc(C(F)(F)F)n2)cc1)c1ccc(C(F)(F)F)cc1` (stereo not drawn) [Compound 25, methyl((4-(5-(trifluoromethyl)-1,2,4-oxadiazol-3-yl)benzyl)imino)(4-(trifluoromethyl)phenyl)-λ^6-sulfanone], greater than 90%.
As to `CS(=O)(=NCc1ccc(-c2noc(C(F)(F)F)n2)cc1)c1ccccc1` (stereo not drawn) [Compound 26, methyl(phenyl)((4-(5-(trifluoromethyl)-1,2,4-oxadiazol-3-yl)benzyl)imino)-λ^6-sulfanone], the pest or weed control at 500 ppm is greater than 90%.
`CS(=O)(=NCc1ccc(-c2noc(C(F)(F)F)n2)cc1)c1ccc(Cl)cc1` (stereo not drawn) [Compound 28, (4-chlorophenyl)(methyl)((4-(5-(trifluoromethyl)-1,2,4-oxadiazol-3-yl)benzyl)imino)-λ^6-sulfanone]: the pest or weed control at 500 ppm is greater than 90%.
In the case of `Cc1ccc(S(C)(=O)=NC(=O)c2ccc(-c3noc(C(F)(F)F)n3)cc2)cc1` (stereo not drawn) [Compound 30, N-(methyl(oxo)(p-tolyl)-λ^6-sulfaneylidene)-4-(5-(trifluoromethyl)-1,2,4-oxadiazol-3-yl)benzamide], the pest or weed control at 500 ppm was greater than 90%.
The figure for `CS(=O)(Cc1ccc(C#N)cc1)=NC(=O)c1ccc(-c2noc(C(F)(F)F)n2)cc1` (stereo not drawn) [Compound 31, N-((4-cyanobenzyl)(methyl)(oxo)-λ^6-sulfaneylidene)-4-(5-(trifluoromethyl)-1,2,4-oxadiazol-3-yl)benzamide] is greater than 90%; for `CS(=O)(=NC(=O)c1ccc(-c2noc(C(F)(F)F)n2)cc1)c1c(F)cccc1F` (stereo not drawn) [Compound 36, N-((2,6-difluorophenyl)(methyl)(oxo)-λ^6-sulfaneylidene)-4-(5-(trifluoromethyl)-1,2,4-oxadiazol-3-yl)benzamide] it is greater than 90%.
For `CS(=O)(Cc1ccccc1F)=NC(=O)c1ccc(-c2noc(C(F)(F)F)n2)cc1` (stereo not drawn) [Compound 38, N-((2-fluorobenzyl)(methyl)(oxo)-λ^6-sulfaneylidene)-4-(5-(trifluoromethyl)-1,2,4-oxadiazol-3-yl)benzamide] the value was greater than 90%; for `Cc1ccccc1CS(C)(=O)=NC(=O)c1ccc(-c2noc(C(F)(F)F)n2)cc1` (stereo not drawn) [Compound 40, N-(methyl(2-methylbenzyl)(oxo)-λ^6-sulfaneylidene)-4-(5-(trifluoromethyl)-1,2,4-oxadiazol-3-yl)benzamide], greater than 90%; for `CS(=O)(=NC(=O)c1ccc(-c2noc(C(F)(F)F)n2)cc1)c1ccc(C#N)cc1` (stereo not drawn) [Compound 42, N-((4-cyanophenyl)(methyl)(oxo)-λ^6-sulfaneylidene)-4-(5-(trifluoromethyl)-1,2,4-oxadiazol-3-yl)benzamide], greater than 90%.
The figure for `CS(=O)(Cc1ccc(C(F)(F)F)cc1)=NC(=O)c1ccc(-c2noc(C(F)(F)F)n2)cc1` (stereo not drawn) [Compound 50, N-(methyl(oxo)(4-(trifluoromethyl)benzyl)-λ^6-sulfaneylidene)-4-(5-(trifluoromethyl)-1,2,4-oxadiazol-3-yl)benzamide] is greater than 90%; for `CS(=O)(Cc1c(Cl)cccc1Cl)=NC(=O)c1ccc(-c2noc(C(F)(F)F)n2)cc1` (stereo not drawn) [Compound 51, N-((2,6-dichlorobenzyl)(methyl)(oxo)-λ^6-sulfaneylidene)-4-(5-(trifluoromethyl)-1,2,4-oxadiazol-3-yl)benzamide] it is greater than 90%; for `Cc1csc(S(C)(=O)=NC(=O)c2ccc(-c3noc(C(F)(F)F)n3)cc2)n1` (stereo not drawn) [Compound 53, N-(methyl(4-methylthiazol-2-yl)(oxo)-λ^6-sulfaneylidene)-4-(5-(trifluoromethyl)-1,2,4-oxadiazol-3-yl)benzamide] it is greater than 90%.
For `Cc1nnc(S(C)(=O)=NC(=O)c2ccc(-c3noc(C(F)(F)F)n3)cc2)s1` (stereo not drawn) [Compound 54, N-(methyl(5-methyl-1,3,4-thiadiazol-2-yl)(oxo)-λ^6-sulfaneylidene)-4-(5-(trifluoromethyl)-1,2,4-oxadiazol-3-yl)benzamide], the pest or weed control at 500 ppm is greater than 90%.
Consider `CS(=O)(=NC(=O)c1ccc(-c2noc(C(F)(F)F)n2)cc1)c1ccc(F)c(F)c1` (stereo not drawn) [Compound 57, N-((3,4-difluorophenyl)(methyl)(oxo)-λ^6-sulfaneylidene)-4-(5-(trifluoromethyl)-1,2,4-oxadiazol-3-yl)benzamide], for which the pest or weed control at 500 ppm is greater than 90%.
In the case of `O=C(N=S1(=O)CCOCC1)c1ccc(-c2noc(C(F)(F)F)n2)cc1` [Compound 58, N-(4-oxido-1,4λ^6-oxathian-4-ylidene)-4-(5-(trifluoromethyl)-1,2,4-oxadiazol-3-yl)benzamide], the pest or weed control at 500 ppm was greater than 90%.
The figure for `CS(=O)(Cc1c(F)cccc1F)=Nc1ccc(-c2noc(C(F)(F)F)n2)cc1` (stereo not drawn) [Compound 85, (2,6-difluorobenzyl)(methyl)((4-(5-(trifluoromethyl)-1,2,4-oxadiazol-3-yl)phenyl)imino)-λ^6-sulfanone] is greater than 90%; for `CS(=O)(Cc1ccc(F)cc1)=Nc1ccc(-c2noc(C(F)(F)F)n2)cc1` (stereo not drawn) [Compound 89, (4-fluorobenzyl)(methyl)((4-(5-(trifluoromethyl)-1,2,4-oxadiazol-3-yl)phenyl)imino)-λ^6-sulfanone] it is greater than 90%.
For `CS(=O)(Cc1c(Cl)cccc1Cl)=Nc1ccc(-c2noc(C(F)(F)F)n2)cc1` (stereo not drawn) [Compound 91, (2,6-dichlorobenzyl)(methyl)((4-(5-(trifluoromethyl)-1,2,4-oxadiazol-3-yl)phenyl)imino)-λ^6-sulfanone] the value was greater than 90%.
For `CS(=O)(Cc1ccc(Br)cc1)=Nc1ccc(-c2noc(C(F)(F)F)n2)cc1` (stereo not drawn) [Compound 92, (4-bromobenzyl)(methyl)((4-(5-(trifluoromethyl)-1,2,4-oxadiazol-3-yl)phenyl)imino)-λ^6-sulfanone] the value was greater than 90%.
For `CS(=O)(=Nc1ccc(-c2noc(C(F)(F)F)n2)nc1)c1ccccn1` (stereo not drawn) [Compound 110, methyl(pyridin-2-yl)((6-(5-(trifluoromethyl)-1,2,4-oxadiazol-3-yl)pyridin-3-yl)imino)-λ^6-sulfanone], the pest or weed control at 500 ppm was greater than 90%.
